# Data published in US8771742B2, “Porous cellulose aggregate and molding composition thereof” (Asahi Kasei Chemicals Corporation, priority 2005, dated 2014).
# Experiments:
# Assay type in all cases: physicochemical
# [1] = Reactivity to a drug: aspirin decomposition rate after storage mixed with cellulose; conditions: 60° C., two weeks, closed vial
# Method: (12) Reactivity to a Drug
# Aspirin (Japanese Pharmacopeia crystalline aspirin was treated with a small grinder φ0.5 mm, with 1 pass treatment) and each cellulose sample was mixed at 5/5 (total 0.5 g) in dry conditions and then placed in a glass sample vial and mixed. The vial was stored in an oven (Made by Tabai Espec Corp. Perfect Oven (Commercial Name)) with the cap tightly closed (at 60° C.) for two weeks and then the decomposition rate was measured. Ferric (III) […] sulfate 12 hydrate 8 g was placed in a 100 ml measuring flask, mixed with pure water to bring the volume up to 100 ml to make a coloring test solution. 0.25 g of stored aspirin (total 0.5 g of the blended powder) was introduced to a 50 ml measuring flask, mixed with ethanol to bring the volume up to 50 ml and the mixture was shaken for 5 minutes. Thus obtained ethanol solution was filtered, the filtrate was transferred to a 100 ml measuring flask and ethanol was added to bring the volume up to 100 ml. One milliliter of this ethanol solution and 1 ml of the coloring test solution described above were introduced to a 50 ml measuring flask, mixed with pure water to bring the volume up to 50 ml and the absorption was measured at the wavelength of 532 nm using a UV absorption meter (made by JASCO Corporation). The decomposition rate was calculated from the following formula. […]
# [2] = Elution test of drug from cylindrical molded body (paddle, UV absorbance); conditions: ethenzamide; molded body 50 MPa; paddle 100 rpm, 900 mL Pharmacopeia I liquid
# Method: Cellulose particles A were used. A commercially available ibuprofen (an active component indicated as being almost completely insoluble in water according to Japanese Pharmacopeia 14) was dissolved in polyethylene glycol (Macrogol 400 from Sanyo Kasei Co., Ltd.) at a proportion of 1:5, and then diluted by 10 with ethanol. This was added to the cellulose particles A to result in 10% by weight. The mixture was stirred in a die. A die (from KIKUSUI SEISAKUSHO LTD, made with SUS 2, 3) was filled with 0.2 g of the obtained powder, and a circular flat punch (from KIKUSUI SEISAKUSHO LTD, made with SUS 2, 3) with a diameter of 0.8 cm was used to apply compression until the pressure reached 100 MPa (PCM-1A (Commercial Name) from AIKOH ENGINEERING CO., LTD. was used with a compression rate of 1 cm/min). The cylindrical molded body was released after the target pressure was maintained for 10 seconds. Fluid component effusion on the surface of the molded body was observed, drug elution from the cylindrical molded body (elution tests were conducted with a JASCO Corporation ultraviolet absorption spectrometer at paddle speed 100 rpm and 900 mL of Pharmacopeia I liquid, in which fluid absorbance was measured and the elution rate was calculated 3 minutes after) and disintegration time of the cylindrical molded bodies was measured. […]
# [3] = Repose angle (Sugihara type device); conditions: low fluidity component model without cellulose
# Method: Using a Sugihara type repose angle measuring device (slit size: depth 10 mm×width 50 mm×height 140 mm, a protractor was placed at the position of 50 mm width), the dynamic self-fluidity was measured when cellulose powder was dropped to the slit at 3 g/minute using a quantitative feeder. The angle between the bottom of the device and the top layer of the cellulose powder is the repose angle.
smiles,measurement,setting,value
"CC(=O)Oc1ccccc1C(=O)O [aspirin, Aspirin]",aspirin decomposition rate,[1],15%
"CCOc1ccccc1C(N)=O [Comparative Example 76, ethenzamide]",Elution rate after 1 hour,[2],9%
"CC(=O)Nc1ccc(O)cc1 [Component model C, Acetaminophen]",Repose angle Before the addition of cellulose,[3],55 °
